Laboratory results taken from patent US9067943B2, “[1,2,3]triazolo[4,5-D]pyrimidine derivatives” (priority 2011, dated 2015).
Like-named read-outs stand apart in the source and are kept apart here.

Columns and labels:
[1] = molecular target: T1, human CB2 receptors (Homo sapiens, UniProt P34972); assay: cAMP assay; type: cell-based
T1 construct: expressed in transfected cells; host or cells: CHO cells
How it was run: (§1)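 CHO cells expressing human CB1 or CB2 were preincubated 30 min at 30 °C in Krebs Ringer bicarbonate buffer with 1 mM IBMX, then exposed to compounds for 30 min at 30 °C. cAMP was measured by time-resolved FRET against a cAMP standard curve, and EC50 values were derived.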

[2] = molecular target: T2, human CB1 receptors (Homo sapiens, UniProt P21554); assay: cAMP assay; type: cell-based
T2 construct: expressed in transfected cells; host or cells: CHO cells
How it was run: as §1

[3] = functional cAMP assay, CHO cells expressing human CB2, read-out: human CB2 EC50

T1 sequence (P34972 whole entry): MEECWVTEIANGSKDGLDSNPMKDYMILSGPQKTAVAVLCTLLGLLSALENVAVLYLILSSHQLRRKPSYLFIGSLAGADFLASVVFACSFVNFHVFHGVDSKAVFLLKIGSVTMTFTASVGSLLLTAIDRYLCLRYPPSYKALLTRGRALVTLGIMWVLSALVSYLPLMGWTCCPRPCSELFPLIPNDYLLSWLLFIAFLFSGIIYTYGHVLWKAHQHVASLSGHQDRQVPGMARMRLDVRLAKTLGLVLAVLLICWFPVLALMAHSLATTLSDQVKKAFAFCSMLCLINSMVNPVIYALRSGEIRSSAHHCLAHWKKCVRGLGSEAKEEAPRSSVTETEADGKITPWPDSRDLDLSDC
T2 sequence (P21554 whole entry): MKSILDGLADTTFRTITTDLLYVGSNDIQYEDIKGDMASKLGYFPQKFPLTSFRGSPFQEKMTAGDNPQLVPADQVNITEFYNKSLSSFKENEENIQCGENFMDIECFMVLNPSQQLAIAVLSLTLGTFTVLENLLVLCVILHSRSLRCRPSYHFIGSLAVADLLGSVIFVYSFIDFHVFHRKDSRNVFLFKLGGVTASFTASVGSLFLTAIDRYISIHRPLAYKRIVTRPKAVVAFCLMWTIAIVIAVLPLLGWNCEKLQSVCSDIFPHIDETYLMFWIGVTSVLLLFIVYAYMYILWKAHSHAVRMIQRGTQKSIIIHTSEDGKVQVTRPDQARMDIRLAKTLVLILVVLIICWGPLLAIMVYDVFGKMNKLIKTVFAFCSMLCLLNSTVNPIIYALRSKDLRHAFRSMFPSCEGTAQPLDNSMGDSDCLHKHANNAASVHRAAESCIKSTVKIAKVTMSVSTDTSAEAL

SMILES | EC50 [1, 3] | EC50 [2] | EC50 [1]
Cc1cc(Cn2nc3nc(C(C)(C)C)nc(N4CC[C@H](O)C4)c3n2)n(C)n1 [Example 91, (S)-1-[5-tert-Butyl-2-(2,5-dimethyl-2H-pyrazol-3-ylmethyl)-2H-[1,2,3]triazolo[4,5-d]pyrimidin-7-yl]-pyrrolidin-3-ol] | 124 nM | > 10000 nM | 
CC(C)(C)c1nc(N2CCC(F)(F)C2)c2nn(Cc3ccccc3C#N)nc2n1 [Example 25, 2-[5-tert-Butyl-7-(3,3-difluoro-pyrrolidin-1-yl)-[1,2,3]triazolo[4,5-d]pyrimidin-2-ylmethyl]-benzonitrile] |  | 205 nM | 0.1 nM
Cn1nncc1Cn1nc2nc(C(C)(C)C)nc(N3CC[C@H](O)C3)c2n1 [Example 90, (S)-1-[5-tert-Butyl-2-(3-methyl-3H-[1,2,3]triazol-4-ylmethyl)-2H-[1,2,3]triazolo[4,5-d]pyrimidin-7-yl]-pyrrolidin-3-ol] |  | > 10000 nM | 40.7 nM
CC(C)(C)c1nc(N2CC[C@](C)(O)C2)c2nn(Cc3ccccc3S(C)(=O)=O)nc2n1 [Example 126-a, (S)-1-[5-tert-Butyl-2-(2-methanesulfonyl-benzyl)-2H-[1,2,3]triazolo[4,5-d]pyrimidin-7-yl]-3-methyl-pyrrolidin-3-ol] |  | > 10000 nM | 10.6 nM
Cc1nnc(Cn2nc3nc(O[C@@H](C)C(F)(F)F)nc(N4CCC(F)(F)C4)c3n2)o1 [Example 118, 7-(3,3-Difluoro-pyrrolidin-1-yl)-2-(5-methyl-[1,3,4]oxadiazol-2-ylmethyl)-5-((S)-2,2,2-trifluoro-1-methyl-ethoxy)-2H-[1,2,3]triazolo[4,5-d]pyrimidine] | 441 nM | > 10000 nM | 
CC(C)(C)c1nc(N2CC[C@@](C)(O)C2)c2nn(Cc3nnnn3C3CC3)nc2n1 [Example 133-b, (R)-1-[5-tert-Butyl-2-(1-cyclopropyl-1H-tetrazol-5-ylmethyl)-2H-[1,2,3]triazolo[4,5-d]pyrimidin-7-yl]-3-methyl-pyrrolidin-3-ol] | 547 nM | > 10000 nM | 
Cc1nnc(Cn2nc3nc(C(C)(C)C)nc(N4CC(F)(F)C(F)(F)C4)c3n2)n1C [Example 103, 5-tert-Butyl-2-(4,5-dimethyl-4H-[1,2,4]triazol-3-ylmethyl)-7-(3,3,4,4-tetrafluoro-pyrrolidin-1-yl)-2H-[1,2,3]triazolo[4,5-d]pyrimidine] |  | > 10000 nM | 20.9 nM
CC(C)(C)c1nc(N2CCC(F)(F)C2)c2nn(CC(F)(F)F)nc2n1 [Example 18, 5-tert-Butyl-7-(3,3-difluoro-pyrrolidin-1-yl)-2-(2,2,2-trifluoro-ethyl)-2H-[1,2,3]triazolo[4,5-d]pyrimidine] |  | > 10000 nM | 1.4 nM
CC1(Cn2nc3nc(C(C)(C)C)nc(N4CCC(F)(F)C4)c3n2)COC1 [Example 51, 5-tert-Butyl-7-(3,3-difluoro-pyrrolidin-1-yl)-2-(3-methyl-oxetan-3-ylmethyl)-2H-[1,2,3]triazolo[4,5-d]pyrimidine] |  | > 10000 nM | 0.9 nM
CC(C)(C)c1nc(N2CCC(F)(F)C2)c2nn(Cc3ccccn3)nc2n1 [Example 15, 5-tert-Butyl-7-(3,3-difluoro-pyrrolidin-1-yl)-2-pyridin-2-ylmethyl-2H-[1,2,3]triazolo[4,5-d]pyrimidine] |  | 210 nM | 0.7 nM
Cn1nncc1Cn1nc2nc(C(C)(C)C)nc(N3CCC(F)(F)C3)c2n1 [Example 82, 5-tert-Butyl-7-(3,3-difluoro-pyrrolidin-1-yl)-2-(3-methyl-3H-[1,2,3]triazol-4-ylmethyl)-2H-[1,2,3]triazolo[4,5-d]pyrimidine] |  | > 10000 nM | 2.8 nM
CC(C)(C)c1nc(N2CCC(F)(F)C2)c2nn(CC(=O)c3ccccc3Cl)nc2n1 [Example 47, 2-[5-tert-Butyl-7-(3,3-difluoro-pyrrolidin-1-yl)-[1,2,3]triazolo[4,5-d]pyrimidin-2-yl]-1-(2-chloro-phenyl)-ethanone] |  | > 10000 nM | 0.6 nM
CC(C)(C)c1nc(N2CCC(F)(F)C2)c2nn(Cc3cc(Cl)ccc3Cl)nc2n1 [Example 11, 5-tert-Butyl-2-(2,5-dichloro-benzyl)-7-(3,3-difluoro-pyrrolidin-1-yl)-2H-[1,2,3]triazolo[4,5-d]pyrimidine] |  | > 10000 nM | 1.2 nM
Cc1nnc(Cn2nc3nc(C(C)(C)C)nc(N4CCC(F)(F)C4)c3n2)o1 [Example 65, 5-tert-Butyl-7-(3,3-difluoro-pyrrolidin-1-yl)-2-(5-methyl-[1,3,4]oxadiazol-2-ylmethyl)-2H-[1,2,3]triazolo[4,5-d]pyrimidine] |  | > 10000 nM | 18.6 nM
CC(C)(C)c1nc(N2CCC(F)(F)C2)c2nn(CCc3ccccc3Cl)nc2n1 [Example 41, 5-tert-Butyl-2-[2-(2-chloro-phenyl)-ethyl]-7-(3,3-difluoro-pyrrolidin-1-yl)-2H-[1,2,3]triazolo[4,5-d]pyrimidine] |  | 498 nM | 0.5 nM
CC(C)(C)c1nc(N2CCC(F)(F)C2)c2nn(Cc3c(F)ccc(Cl)c3Cl)nc2n1 [Example 48, 5-tert-Butyl-2-(2,3-dichloro-6-fluoro-benzyl)-7-(3,3-difluoro-pyrrolidin-1-yl)-2H-[1,2,3]triazolo[4,5-d]pyrimidine] |  | > 10000 nM | 5.5 nM
CC(C)(C)c1nc(N2CC[C@@](C)(O)C2)c2nn(CCC(F)(F)F)nc2n1 [Example 132-b, (R)-1-[5-tert-Butyl-2-(3,3,3-trifluoro-propyl)-2H-[1,2,3]triazolo[4,5-d]pyrimidin-7-yl]-3-methyl-pyrrolidin-3-ol] |  | > 10000 nM | 69.8 nM
